Data published in patent US9156811B2 (priority 2008, dated 2015).
Read-outs that look alike come from different tables or passages of the source.

What was measured:
[1] = molecular target: T. brucei N-myristoyl transferase (Trypanosoma brucei brucei (strain 927/4 GUTat10.1), UniProt Q388H8); assay: biochemical; assay type: biochemical; conditions: read-out: IC50 (μM) NMT Enzyme
[2] = tested on: Trypanosome (T. brucei brucei); assay: In-vitro antitrypanosomal efficacy assay (cell growth, resazurin); assay type: cell-based; conditions: T. brucei cell growth
Method: To column 12, 200 μl media was added to provide a no cells control. Plates were then incubated at 37° C. in an atmosphere of 5% CO2 for 69 hours, before the addition of 20 μl of 500 μM rezasurin solution, and a further incubation period of 4 hours. […] Concentration effect curves were fitted using non-linear regression using XLFit 4.2 and EC50 values determined.

[3] = value printed without enzyme tag in the NMT Enzyme column (taken as T. brucei NMT)
[4] = value with no enzyme tag in the cell, taken as T. brucei NMT

T. brucei N-myristoyl transferase, sequence (Q388H8 1-446): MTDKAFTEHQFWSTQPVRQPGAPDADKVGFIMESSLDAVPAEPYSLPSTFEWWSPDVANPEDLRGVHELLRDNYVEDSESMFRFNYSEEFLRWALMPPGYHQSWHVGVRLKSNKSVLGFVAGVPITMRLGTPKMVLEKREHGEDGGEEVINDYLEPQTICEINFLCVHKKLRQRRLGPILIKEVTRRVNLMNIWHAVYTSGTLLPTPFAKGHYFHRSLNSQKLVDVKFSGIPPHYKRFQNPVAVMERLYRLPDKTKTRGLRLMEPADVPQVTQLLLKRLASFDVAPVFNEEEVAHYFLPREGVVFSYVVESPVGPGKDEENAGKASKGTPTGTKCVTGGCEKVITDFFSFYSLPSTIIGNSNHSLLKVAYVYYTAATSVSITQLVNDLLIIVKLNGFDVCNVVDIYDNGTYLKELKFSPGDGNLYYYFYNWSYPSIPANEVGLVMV

| Structure (SMILES) | IC50 [1, 3] | ED50 (μM) T. brucei [2] | IC50 [1, 4] |
| --- | --- | --- | --- |
| COc1cc(C)c([S+](=O)([O-])Nc2c(C)nn(CCc3ccccc3)c2C)c(C)c1C [DDD73496] | > 100 µM | >1 µM | – |
| COc1cc(C)c([S+](=O)([O-])Nc2c(C)nn(C(C)C)c2C)c(C)c1C [DDD73497] | > 100 µM | >1 µM | – |
| Cc1nn(C)c(C)c1N[S+](=O)([O-])c1ccc(COc2ccc(C(C)(C)c3ccccc3)cc2)cc1 [DDD73499] | > 100 µM | >1 µM | – |
| COc1cc(NCc2ccc([S+](=O)([O-])Nc3c(C)nn(C)c3C)cc2)cc(OC)c1OC [DDD73501] | 19 µM | >1 µM | – |
| Cc1nn(C)c(C)c1N[S+](=O)([O-])c1ccc(CNc2ccc(Oc3ccccc3)cc2)cc1 [DDD73502] | 4.8 µM | >1 µM | – |
| Cc1nn(C)c(C)c1N[S+](=O)([O-])c1ccc(Cn2cnc(-c3ccccc3)c2)cc1 [DDD73503] | 2.5 µM | 10.5 µM | – |
| Cc1nn(C)c(C)c1N[S+](=O)([O-])c1ccc(CNc2ccncn2)cc1 [DDD73504] | 4.2 µM | >1 µM | – |
| Cc1nn(C)c(C)c1N[S+](=O)([O-])c1ccc(CNc2ccc(C(C)C)cc2)cc1 [DDD73505] | 9.7 µM | >1 µM | – |
| Cc1nn(C)c(C)c1N[S+](=O)([O-])c1ccc(CNc2ccc(N3CCOCC3)cc2)cc1 [DDD73506] | 10 µM | >1 µM | – |
| Cc1nn(C)c(C)c1N[S+](=O)([O-])c1ccc(COc2ccc3cc[nH]c3c2)cc1 [DDD73507] | 4.5 µM | >1 µM | – |
| Cc1nn(C)c(C)c1N[S+](=O)([O-])c1ccc(CNc2ccc(-c3ccccn3)cc2)cc1 [DDD73508] | 5.2 µM | >1 µM | – |
| Cc1nn(C)c(C)c1N[S+](=O)([O-])c1ccc(CNc2ccccc2)cc1 [DDD73509] | 3.8 µM | >1 µM | – |
| Cc1nn(C)c(C)c1N[S+](=O)([O-])c1ccc(CNc2noc(C)c2C)cc1 [DDD73510] | 26.9 µM | >1 µM | – |
| Cc1nn(C)c(C)c1N[S+](=O)([O-])c1ccc(COCc2ccc3ccccc3c2)cc1 [DDD73511] | > 100 µM | >1 µM | – |
| Cc1nn(C)c(C)c1N[S+](=O)([O-])c1ccc(Cn2cnc3ccccc32)cc1 [DDD73512] | 6.1 µM | >1 µM | – |
| COc1ccc(NCc2ccc([S+](=O)([O-])Nc3c(C)nn(C)c3C)cc2)cc1 [DDD73513] | 5.7 µM | >1 µM | – |
| Cc1nn(C)c(C)c1N[S+](=O)([O-])c1ccc(CSc2ccc3ccccc3c2)cc1 [DDD73516] | 47.6 µM | >1 µM | – |
| Cc1nn(C)c(C)c1N(C1CC1)[S+](=O)([O-])c1c(Cl)cc(Br)cc1Cl [DDD85591] | 0.59 µM | 5.3 µM | – |
| Cc1nn(C)c(C)c1N[S+](=O)([O-])c1ccc(CNC2CCc3ccccc32)cc1 (centres unmarked) [DDD85592] | 44 µM | >1 µM | – |
| Cc1nn(C)c(C)c1N(CCCO)S(=O)(=O)c1c(Cl)cc(Br)cc1Cl [DDD85593, 4-Bromo-2,6-dichloro-N-(3-hydroxy-propyl)-N-(1,3,5-trimethyl-1H-pyrazol-4-yl)-benzenesulfonamide] | 0.36 µM | 3.5 µM | – |

| Structure (SMILES) | IC50 [1, 3] | ED50 (μM) T. brucei [2] | IC50 [1, 4] |
| --- | --- | --- | --- |
| CCCN(c1c(C)nn(C)c1C)[S+](=O)([O-])c1c(Cl)cc(Br)cc1Cl [DDD85594] | 3.2 µM | 21.0 µM | – |
| Cc1nn(C)c(C)c1N[S+](=O)([O-])c1ccc(CN2CCCc3ccccc32)cc1 [DDD85596] | 41.7 µM | >1 µM | – |
| Cc1nn(C)c(C)c1N[S+](=O)([O-])c1ccc(N2CCc3ccccc32)nc1 [DDD85597] | 8 µM | >1 µM | – |
| Cc1nn(C)c(C)c1N[S+](=O)([O-])c1ccc(N2Cc3ccccc3C2)nc1 [DDD85598] | 18.2 µM | >1 µM | – |
| Cc1nn(C)c(C)c1N[S+](=O)([O-])c1ccc(CSCc2ccccc2)cc1 [DDD85599] | 2.4 µM | >1 µM | – |
| Cc1nn(C)c(C)c1N(C1CCCC1)[S+](=O)([O-])c1c(Cl)cc(Br)cc1Cl [DDD85600] | 1.9 µM | 5.9 µM | – |
| COc1ccc(SCc2ccc([S+](=O)([O-])Nc3c(C)nn(C)c3C)cc2)cc1OC [DDD85604] | 3.3 µM | >1 µM | – |
| Cc1nn(C)c(C)c1N(C)[S+](=O)([O-])c1ccc(N2CCc3c(N)cccc3C2)nc1 [DDD85605] | 0.57 µM | 2.4 µM | – |
| Cc1nn(C)c(C)c1N(CCc1ccccc1)[S+](=O)([O-])c1c(Cl)cc(Br)cc1Cl [DDD85606] | 4.9 µM | 3.6 µM | – |
| Cc1nn(C)c(C)c1N(CCO)[S+](=O)([O-])c1c(Cl)cc(Br)cc1Cl [DDD85607] | 1.1 µM | 7.1 µM | – |
| Cc1nn(C)c(C)c1N[S+](=O)([O-])c1ccc(CSc2ccc(C(C)(C)C)cc2)cc1 [DDD85609] | 69.5 µM | >1 µM | – |
| Cc1nn(C)c(C)c1N[S+](=O)([O-])c1ccc(CSc2ccc(Cl)cc2Cl)cc1 [DDD85610] | 61.6 µM | >1 µM | – |
| Cc1ncccc1N[S+](=O)([O-])c1ccc(NCc2ccc3[nH]ccc3c2)nc1 [DDD85611] | 7.2 µM | >1 µM | – |
| Cc1nn(C)c(C)c1N[S+](=O)([O-])c1ccc(NC2CCc3ccccc32)nc1 (centres unmarked) [DDD85613] | 6.6 µM | >1 µM | – |
| Cc1nn(C)c(C)c1N[S+](=O)([O-])c1ccc(N(C)Cc2ccc(CN(C)C)cc2)nc1 [DDD85624] | 0.36 µM | 1.5 µM | – |
| Cc1nn(C)c(C)c1N(CC1CC1)[S+](=O)([O-])c1c(Cl)cc(Br)cc1Cl [DDD85625] | 0.67 µM | 4.6 µM | – |
| Cc1nn(C)c(C)c1N[S+](=O)([O-])c1ccc(N(C)CCCN(C)C)nc1 [DDD85626] | 0.61 µM | 1.9 µM | – |
| Cc1nn(C)c(C)c1N[S+](=O)([O-])c1ccc(NCCCN2CCN(C)CC2)nc1 [DDD85627] | 0.12 µM | 0.62 µM | – |
| Cc1nn(C)c(C)c1N[S+](=O)([O-])c1ccc(COCCn2ccnc2)cc1 [DDD85628] | 11.1 µM | >1 µM | – |
| Cc1nn(C)c(C)c1N[S+](=O)([O-])c1ccc(NCCCN(C)C)nc1 [DDD85629] | 2.4 µM | 38.0 µM | – |

| Structure (SMILES) | IC50 [1, 3] | ED50 (μM) T. brucei [2] | IC50 [1, 4] |
| --- | --- | --- | --- |
| Cc1nn(C)c(C)c1N[S+](=O)([O-])c1ccc(NCCCn2ccnc2)nc1 [DDD85633] | – | >50 µM | 2 µM |
| COc1cc(C)c([S+](=O)([O-])Nc2ccc(C)nc2C)c(C)c1C [DDD85634] | – | >1 µM | 27.9 µM |
| Cc1nn(C)c(C)c1N[S+](=O)([O-])c1ccc(CNCCN(C)C)cc1 [DDD85640] | – | >50 µM | 3.3 µM |
| Cc1nn(C)c(C)c1N[S+](=O)([O-])c1ccc(CNCCN2CCCCC2)cc1 [DDD85643] | – | >1 µM | 8 µM |
| Cc1nn(C)c(C)c1N[S+](=O)([O-])c1ccc(COCCCN(C)C)cc1 [DDD85647] | – | >1 µM | 66.1 µM |
| Cc1nn(C)c(C)c1N[S+](=O)([O-])c1ccc(COCCCN2CCN(C)CC2)cc1 [DDD85648] | – | >1 µM | 47.7 µM |
| Cc1nn(C)c(C)c1N[S+](=O)([O-])c1ccc(COCCN2CCN(C)CC2)cc1 [DDD85649] | – | >1 µM | 40 µM |
| Cc1nn(C)c(C)c1N[S+](=O)([O-])c1ccc(COCCCCN(C)C)cc1 [DDD85650] | – | >1 µM | 52.6 µM |
| Cc1nn(C)c(C)c1N[S+](=O)([O-])c1ccc(NCc2cccc(CN3CCCCC3)c2)nc1 [DDD85651] | – | 9.8 µM | 1.8 µM |
| Cc1nn(C)c(C)c1N[S+](=O)([O-])c1ccc(-c2cccc(C=O)c2)cc1 [DDD86210] | – | >1 µM | 6 µM |
| Cc1nn(C)c(C)c1N[S+](=O)([O-])c1ccc(NCCCN2CCN(c3ccccc3)CC2)nc1 [DDD86291] | – | >1 µM | 1 µM |
| Cc1nn(C)c(C)c1NS(=O)(=O)c1c(Cl)cc(-c2ccnc(N3CCC(N(C)C)C3)c2)cc1Cl (centres unmarked) [DDD86292, 2,6-Dichloro-4-[2-(3-dimethylamino-pyrrolidin-1-yl)-pyridin-4-yl]-N-(1,3,5-trimethyl-1 H-pyrazol-4-yl)-benzenesulfonamide] | – | >1 µM | 1 µM |
| Cc1nn(C)c(C)c1N[S+](=O)([O-])c1ccc(NCCO)nc1 [DDD86293] | – | >1 µM | 1 µM |
| Cc1nn(C)c(C)c1N[S+](=O)([O-])c1ccc(NCCCNC2CCN(Cc3ccccc3)C2)nc1 (centres unmarked) [DDD86295] | – | >1 µM | 1 µM |
| CNCCNc1cc(-c2cc(Cl)c([S+](=O)([O-])Nc3c(C)nn(C)c3C)c(Cl)c2)ccn1 [DDD86297, 2,6-Dichloro-4-[2-(2-methylamino-ethylamino)-pyridin-4-yl]-N-(1,3,6-trimethyl-1H-pyrazol-4-yl)-benzenesulfonamide] | – | >1 µM | 1 µM |
| Cc1nn(C)c(C)c1N[S+](=O)([O-])c1ccc(NCCN2CCN(C(C)C)CC2)nc1 [DDD86298] | – | >1 µM | 1 µM |
| Cc1nn(C)c(C)c1NS(=O)(=O)c1c(Cl)cc(-c2ccnc(NCCNc3ccccn3)c2)cc1Cl [DDD86302, 2,6-Dichloro-4-{2-[2-(pyridin-2-ylamino)-ethylamino]pyridin-4-yl}-N-(1,3,5-trimethyl-1 H-pyrazol-4-yl)-benzenesulfonamide] | – | >1 µM | 1 µM |
| Cc1nn(C)c(C)c1N[S+](=O)([O-])c1ccc(NCCN2CCN(C)CC2c2ccccc2)nc1 (centres unmarked) [DDD86304] | – | >1 µM | 1 µM |
